Measured values: ChEMBL document CHEMBL3817808, “Enlarging the chemical space of anti-leishmanials: a structureactivity relationship study of peptoids against Leishmania mexicana, a causative agent of cutaneous leishmaniasis” (Medchemcomm, 2016)
pEC50: −log10 of the molar value. Non-standard residues stand in square brackets, D forms with d. Residues, ends and D or L forms follow the SMILES beside them. Gly(Nα-4-Cl-benzyl) = O=C(O)CNCc1ccc(Cl)cc1; Gly(N-(CH2)6NH2) = NCCCCCCNCC(=O)O; Gly(N-2-aminoethyl) = NCCNCC(=O)O; Nspe = C[C@H](NCC(=O)O)c1ccccc1; Nphe = O=C(O)CNCc1ccccc1; Nlys = NCCCCNCC(=O)O

Experiments:
Leishmania mexicana [1] = experiment: Antileishmanial activity against Leishmania mexicana MNYC/BZ/62/M379 promastigotes assessed as parasite viability measured after 1 hr by alamarBlue staining based fluorescence analysis; assay type: functional; details: MNYC/BZ/62/M379, 1 h, read-out: ED50 (the source's name)
Leishmania mexicana [2] = experiment: Antileishmanial activity against axenic amastigote form of Leishmania mexicana MNYC/BZ/62/M379 assessed as parasite viability measured after 1 hr by alamarBlue staining based fluorescence analysis; assay type: functional; details: MNYC/BZ/62/M379, 1 h, read-out: ED50 (the source's name)

Compound	pEC50 (Leishmania mexicana [1])	pEC50 (Leishmania mexicana [2])
COc1ccc(CN(CC(N)=O)C(=O)CN(Cc2ccc(OC)cc2)C(=O)CN(CCCCN)C(=O)CN(Cc2ccc(OC)cc2)C(=O)CN(Cc2ccc(OC)cc2)C(=O)CNCCCCN)cc1	< 4.00	< 4.00
C[C@@H](c1ccccc1)N(CC(N)=O)C(=O)CN(C(=O)CN(CCCCCCN)C(=O)CN(C(=O)CN(C(=O)CNCCCCCCN)[C@@H](C)c1ccccc1)[C@@H](C)c1ccccc1)[C@@H](C)c1ccccc1	< 4.00	< 4.00
COc1ccc(CN(CC(N)=O)C(=O)CN(Cc2ccc(OC)cc2)C(=O)CN(CCCCN)C(=O)CN(Cc2ccc(OC)cc2)C(=O)CN(Cc2ccc(OC)cc2)C(=O)CN(CCCCN)C(=O)CN(Cc2ccc(OC)cc2)C(=O)CN(Cc2ccc(OC)cc2)C(=O)CNCCCCN)cc1	< 4.00	< 4.00
C[C@@H](c1ccccc1)N(CC(N)=O)C(=O)CN(C(=O)CN(CCCCN)C(=O)CN(Cc1ccc(F)cc1)C(=O)CN(Cc1ccc(F)cc1)C(=O)CNCCCCN)[C@@H](C)c1ccccc1	< 4.00	< 4.00
NCCCCNCC(=O)N(CC(=O)N(CC(=O)N(CCCCN)CC(=O)N(CC(=O)N(CC(=O)N(CCCCN)CC(=O)N(CC(=O)N(CC(N)=O)Cc1cccc(F)c1)Cc1cccc(F)c1)Cc1cccc(F)c1)Cc1cccc(F)c1)Cc1cccc(F)c1)Cc1cccc(F)c1	4.77	< 4.00
COc1ccc(CN(CC(N)=O)C(=O)CN(Cc2ccc(OC)cc2)C(=O)CN(CCCCN)C(=O)CN(Cc2ccc(OC)cc2)C(=O)CN(Cc2ccc(OC)cc2)C(=O)CN(CCCCN)C(=O)CN(Cc2ccc(OC)cc2)C(=O)CN(Cc2ccc(OC)cc2)C(=O)CN(CCCCN)C(=O)CN(Cc2ccc(OC)cc2)C(=O)CN(Cc2ccc(OC)cc2)C(=O)CNCCCCN)cc1	4.38	< 4.00
NCCCCNCC(=O)N(CC(=O)N(CC(=O)N(CCCCN)CC(=O)N(CC(=O)N(CC(=O)N(CCCCN)CC(=O)N(CC(=O)N(CC(N)=O)Cc1ccccc1)Cc1ccccc1)Cc1ccccc1)Cc1ccccc1)Cc1ccccc1)Cc1ccccc1	< 4.00	< 4.00
C[C@@H](c1ccccc1)N(CC(N)=O)C(=O)CN(C(=O)CN(CCN)C(=O)CN(C(=O)CN(C(=O)CNCCN)[C@@H](C)c1ccccc1)[C@@H](C)c1ccccc1)[C@@H](C)c1ccccc1	< 4.00	< 4.00
C[C@@H](c1ccccc1)N(CC(N)=O)C(=O)CN(Cc1ccc(F)cc1)C(=O)CN(CCCCN)C(=O)CN(C(=O)CN(Cc1ccc(F)cc1)C(=O)CNCCCCN)[C@@H](C)c1ccccc1	< 4.00	< 4.00
NCCCCNCC(=O)N(CC(=O)N(CC(=O)N(CCCCN)CC(=O)N(CC(=O)N(CC(=O)N(CCCCN)CC(=O)N(CC(=O)N(CC(=O)N(CCCCN)CC(=O)N(CC(=O)N(CC(N)=O)Cc1cccc(F)c1)Cc1cccc(F)c1)Cc1cccc(F)c1)Cc1cccc(F)c1)Cc1cccc(F)c1)Cc1cccc(F)c1)Cc1cccc(F)c1)Cc1cccc(F)c1	4.85	4.16
NCCCCNCC(=O)N(CC(=O)N(CC(=O)N(CCCCN)CC(=O)N(CC(=O)N(CC(N)=O)Cc1cccc(F)c1)Cc1cccc(F)c1)Cc1cccc(F)c1)Cc1cccc(F)c1	< 4.00	< 4.00
NCCNCC(=O)N(CC(=O)N(CC(=O)N(CCN)CC(=O)N(CC(=O)N(CC(N)=O)Cc1ccccc1)Cc1ccccc1)Cc1ccccc1)Cc1ccccc1 (H-[Gly(N-2-aminoethyl)][Nphe][Nphe][Gly(N-2-aminoethyl)][Nphe][Nphe]-NH2)	< 4.00	< 4.00
NCCNCC(=O)N(CC(=O)N(CC(=O)N(CCN)CC(=O)N(CC(=O)N(CC(=O)N(CCN)CC(=O)N(CC(=O)N(CC(N)=O)Cc1ccccc1)Cc1ccccc1)Cc1ccccc1)Cc1ccccc1)Cc1ccccc1)Cc1ccccc1 (H-[Gly(N-2-aminoethyl)][Nphe][Nphe][Gly(N-2-aminoethyl)][Nphe][Nphe][Gly(N-2-aminoethyl)][Nphe][Nphe]-NH2)	< 4.00	< 4.00
NCCCCCCNCC(=O)N(CC(=O)N(CC(=O)N(CCCCCCN)CC(=O)N(CC(=O)N(CC(N)=O)Cc1ccccc1)Cc1ccccc1)Cc1ccccc1)Cc1ccccc1 (H-[Gly(N-(CH2)6NH2)][Nphe][Nphe][Gly(N-(CH2)6NH2)][Nphe][Nphe]-NH2)	< 4.00	< 4.00
NCCCCCCNCC(=O)N(CC(=O)N(CC(=O)N(CCCCCCN)CC(=O)N(CC(=O)N(CC(=O)N(CCCCCCN)CC(=O)N(CC(=O)N(CC(N)=O)Cc1ccccc1)Cc1ccccc1)Cc1ccccc1)Cc1ccccc1)Cc1ccccc1)Cc1ccccc1 (H-[Gly(N-(CH2)6NH2)][Nphe][Nphe][Gly(N-(CH2)6NH2)][Nphe][Nphe][Gly(N-(CH2)6NH2)][Nphe][Nphe]-NH2)	< 4.00	< 4.00
NCCCCCCNCC(=O)N(CC(=O)N(CC(=O)N(CCCCCCN)CC(=O)N(CC(=O)N(CC(=O)N(CCCCCCN)CC(=O)N(CC(=O)N(CC(=O)N(CCCCCCN)CC(=O)N(CC(=O)N(CC(N)=O)Cc1ccccc1)Cc1ccccc1)Cc1ccccc1)Cc1ccccc1)Cc1ccccc1)Cc1ccccc1)Cc1ccccc1)Cc1ccccc1 (H-[Gly(N-(CH2)6NH2)][Nphe][Nphe][Gly(N-(CH2)6NH2)][Nphe][Nphe][Gly(N-(CH2)6NH2)][Nphe][Nphe][Gly(N-(CH2)6NH2)][Nphe][Nphe]-NH2)	4.68	< 4.00
C[C@@H](c1ccccc1)N(CC(N)=O)C(=O)CN(C(=O)CN(CCCCCCN)C(=O)CN(C(=O)CN(C(=O)CN(CCCCCCN)C(=O)CN(C(=O)CN(C(=O)CNCCCCCCN)[C@@H](C)c1ccccc1)[C@@H](C)c1ccccc1)[C@@H](C)c1ccccc1)[C@@H](C)c1ccccc1)[C@@H](C)c1ccccc1 (H-[Gly(N-(CH2)6NH2)][Nspe][Nspe][Gly(N-(CH2)6NH2)][Nspe][Nspe][Gly(N-(CH2)6NH2)][Nspe][Nspe]-NH2)	4.60	< 4.00
C[C@@H](c1ccccc1)N(CC(N)=O)C(=O)CN(C(=O)CN(CCCCCCN)C(=O)CN(C(=O)CN(C(=O)CN(CCCCCCN)C(=O)CN(C(=O)CN(C(=O)CN(CCCCCCN)C(=O)CN(C(=O)CN(C(=O)CNCCCCCCN)[C@@H](C)c1ccccc1)[C@@H](C)c1ccccc1)[C@@H](C)c1ccccc1)[C@@H](C)c1ccccc1)[C@@H](C)c1ccccc1)[C@@H](C)c1ccccc1)[C@@H](C)c1ccccc1 (H-[Gly(N-(CH2)6NH2)][Nspe][Nspe][Gly(N-(CH2)6NH2)][Nspe][Nspe][Gly(N-(CH2)6NH2)][Nspe][Nspe][Gly(N-(CH2)6NH2)][Nspe][Nspe]-NH2)	4.96	< 4.00
NCCCCNCC(=O)N(CC(=O)N(CC(=O)N(CCCCN)CC(=O)N(CC(=O)N(CC(N)=O)Cc1ccc(Cl)cc1)Cc1ccc(Cl)cc1)Cc1ccc(Cl)cc1)Cc1ccc(Cl)cc1 (H-[Nlys][Gly(Nα-4-Cl-benzyl)][Gly(Nα-4-Cl-benzyl)][Nlys][Gly(Nα-4-Cl-benzyl)][Gly(Nα-4-Cl-benzyl)]-NH2)	4.54	< 4.00
NCCCCNCC(=O)N(CC(=O)N(CC(=O)N(CCCCN)CC(=O)N(CC(=O)N(CC(=O)N(CCCCN)CC(=O)N(CC(=O)N(CC(N)=O)Cc1ccc(Cl)cc1)Cc1ccc(Cl)cc1)Cc1ccc(Cl)cc1)Cc1ccc(Cl)cc1)Cc1ccc(Cl)cc1)Cc1ccc(Cl)cc1 (H-[Nlys][Gly(Nα-4-Cl-benzyl)][Gly(Nα-4-Cl-benzyl)][Nlys][Gly(Nα-4-Cl-benzyl)][Gly(Nα-4-Cl-benzyl)][Nlys][Gly(Nα-4-Cl-benzyl)][Gly(Nα-4-Cl-benzyl)]-NH2)	4.66	4.07
